This passage reports IC50 results from US20200123147A1, “THIAZOLE COMPOUNDS USEFUL AS PRMT5 INHIBITORS” (Bayer Aktiengesellschaft, priority 2017, published 2020).

Where only a bound is given, the exact number is not on record here.

Experiment [1] has as its system PRMT5 (histone H4 Arg3 SDMA levels in MDA-MB-468 cells). As to the kind of experiment: In vitro assay 2: quantification of SDMA (symmetric dimethylarginine) expression levels (H4 Arg3) in cancer cells, High-Content Analysis. The class given is cell-based. Conditions: Homo sapiens, 72 h, SDMA histone H4 (Arg3) average signal intensity per cell. The source says: In Vitro Assay 2: Quantification of SDMA (Symmetric Dimethylarginine) Expression Levels (H4 Arg3) After Small Molecule Treatment of Cancer Cells
The SDMA-assay based on High-Content Analysis (HCA) enables the biological characterization of compounds inhibiting PRMT5. By this assay, substances are benchmarked on their cellular activity to modulate histone H4 Arg3 levels over broad inhibitor concentration ranges.
Cultivated cells of the human mammary gland tumor cell line MDA-MB-468 (ATCC HTB-132) were plated at a density of 2500 cells per well in a 384-well microtiter plate in 20 μL of Roswell Park Memorial Institute (RPMI) 1640 medium supplemented with 1% (v/v) glutamine, 1% (v/v) penicillin, 1% (v/v) streptomycin and 10% (v/v) fetal calf serum. After pre-incubation at 37° C. overnight, test compo unds solubilized in DMSO were added at various concentrations (0 μM, as well as in the range of 0.005 μM-30 μM; the final concentration of the solvent DMSO was 0.5% (v/v)). Cells were incubated at 37° C. for 72 h in the presence of test compounds. Thereafter, cells were fixed with 4% (v/v) paraformaldehyde in phosphate buffered saline (PBS) at room temperature for 1 h, permeabilized using 0.5% (v/v) Triton X™ 100 in PBS for 15 min and blocked with 1% (v/v) bovine serum albumin (BSA) in PBS for 30 min. In the following, cells were incubated with anti-dimethyl-histone H4 (Arg3) symmetric antibody (Millipore #07-947) at RT for 2 h. After a single washing step with blocking solution, cells were incubated with species-specific fluorescent conjugated secondary antibody Alexa Fluor™ 488 (Jackson Immuno Research #111-546-003) at RT for 2 h.
Image acquisition for cells was carried out using the confocal imaging system OPERA® (PerkinElmer). Images were captured using two channels: Hoechst 33342 stain (DNA) and Alexa Fluor™ 488 (SDMA staining); and were analyzed using the MetaXpress® software (Molecular Devices). Exposure times were chosen for individual experiments to prevent saturation and allow for quantification in the linear range. A minimum of 500 cells in 5 field views were analyzed per well using 10× water immersion objective with a two-fold binning.
The image analysis routine was developed in MetaXpress®. The standardized image-analysis module “Count Nuclei” and the images of the DNA-channel were used for nuclei segmentation. The segmented nuclei were filtered for size, shape and signal intensity to exclude possible apoptotic and non-viable cells along with metaphase nuclei. These phenotypes result in overestimated antibody signals, due to their strong chromatin compaction. For further processing, binary object masks were calculated from the segmented and positively selected nuclei. The binary masks served as templates to be superimposed over the images of the SDMA channel. The SDMA average signal intensity per cell was quantified for every image set. The assay raw data were further analyzed by four parameter logistic regression analysis using Genedata's Assay Analyzer® and Condoseo® software to determine the IC50 value for each tested compound.

Experiment [2] has as its target T1, PRMT5:MEP50 protein complex (Homo sapiens, UniProt O14744).
T1 construct: FLAG (N); made in house; host or cells: Hi5 insect cells
As to the kind of experiment: In vitro assay 1: PRMT5 SPA assay ("EAA"). The class given is biochemical. Particulars: scintillation proximity assay, methylation of biotinylated H4(1-24) peptide, 3H-SAM, 60 min at 22° C. The text has this:
In Vitro Assay 1: PRMT5 SPA Assay (“EAA”)
PRMT5 inhibitory activities of the compounds described in the present invention were quantified using a scintillation proximity assay (SPA) which measures methylation by the enzyme of a synthetic, biotinylated peptide corresponding to the N-terminal sequence of Histone H4 (a.a. 1-24). The peptide of sequence […]-K(Btn)-amide is commercially available (e.g. from Biosyntan) and will be herein referred to as H4(1-24). The PRMT5:MEP50 protein complex used in the assay was produced in house following standard protocols. Briefly, full length PRMT5 and MEP50 constructs respectively tagged with N-terminal FLAG and 6× His sequences were co-expressed in Hi5 insect cells, and the recombinant protein complex was purified by FLAG affinity and size exclusion chromatography.
In a typical assay 11 different concentrations of each compound (0.1 nM, 0.33 nM, 1.1 nM, 3.8 nM, 13 nM, 44 nM, 0.15 μM, 0.51 μM, 1.7 μM, 5.9 μM and 20 μM) were tested in duplicate within the same microtiter plate. To this end, 100-fold concentrated compound solutions (in DMSO) were previously prepared by serial dilution (1:3.4) of 2 mM stocks in a clear low volume 384-well source microtiter plate (Greiner Bio-One), from which 50 nl of compounds were transferred into a white low volume test microtiter plate from the same supplier. Subsequently, 2.5 μL PRMT5 in aqueous assay buffer [20 mM Bicine pH 8.0 (Alfa Aesar), 7.5 mM Tris(2-carboxyethyl) phosphine hydrochloride (TCEP, Sigma), 0.1% (w/v) bovine gamma globuline (BGG, Sigma), 0.002% (v/v) Tween-20 (Sigma)] were added to the compounds in the test plate to a final enzyme concentration of—typically—7.5 nM (this parameter was adjusted depending on the activity of the enzyme lot in order to be within the linear dynamic range of the assay). The samples were then incubated for 15 min at 22° C. to allow pre-equilibration of the putative enzyme-inhibitor complexes before the start of the methylation reaction, which was initiated by the addition of 2.5 μL 2-fold concentrated solution (in assay buffer) of “cold” S-Adenosyl-L-Methionine (SAM, Sigma, final concentration: 0.5 μM), tritiated 3H-SAM (Perkin Elmer, final concentration: 0.5 μM) and H4(1-24) peptide substrate (final concentration: 0.06 μM). The resulting mixture (5 μL final volume) was shortly centrifuged (2 min., 1500 rpm) and incubated at 22° C. during 60 min. Thereupon the reaction was stopped by adding 3 μL of Streptavidin PS SPA imaging beads (Perkin Elmer, final concentration of 0.375 μg/μL) and “cold” SAM (AK Scientific, 250 μM final concentration) for non-specific binding reduction. Plates containing the stopped reaction were sealed with transparent adhesive foil (Perkin Elmer), centrifuged (2 min., 1500 rpm), and further incubated either 1 h at 22° C. or overnight at 4° C. in order to allow the SPA signals to develop. Subsequently, the amount of product was evaluated by measuring the energy transfer from the β-particles emitted by the 3H-labeled substrate to the Europium scintillator co-polymerized in the polystyrene matrix of the PS imaging beads, using the standard settings for this purpose of a Viewlux (Perkin-Elmer) CCD plate imaging device (emission filter 613/55 (IFP).
The resulting scintillation counts were taken as indicator for the amount of methylated peptide per well. The data were normalised using two sets of control wells (typically 16 each) for high—(=enzyme reaction with DMSO instead of test compound=0%=minimum inhibition) and low—(=all assay components without enzyme=100%=maximum inhibition) PRMT5 activity. IC50 values were calculated by fitting the normalized inhibition data to a 4-parameter logistic equation using the “Screener” analysis software from Genedata.
(Scintillation proximity formats need no separation of bound from free tracer.)

T1 sequence (O14744 whole entry, species assumed): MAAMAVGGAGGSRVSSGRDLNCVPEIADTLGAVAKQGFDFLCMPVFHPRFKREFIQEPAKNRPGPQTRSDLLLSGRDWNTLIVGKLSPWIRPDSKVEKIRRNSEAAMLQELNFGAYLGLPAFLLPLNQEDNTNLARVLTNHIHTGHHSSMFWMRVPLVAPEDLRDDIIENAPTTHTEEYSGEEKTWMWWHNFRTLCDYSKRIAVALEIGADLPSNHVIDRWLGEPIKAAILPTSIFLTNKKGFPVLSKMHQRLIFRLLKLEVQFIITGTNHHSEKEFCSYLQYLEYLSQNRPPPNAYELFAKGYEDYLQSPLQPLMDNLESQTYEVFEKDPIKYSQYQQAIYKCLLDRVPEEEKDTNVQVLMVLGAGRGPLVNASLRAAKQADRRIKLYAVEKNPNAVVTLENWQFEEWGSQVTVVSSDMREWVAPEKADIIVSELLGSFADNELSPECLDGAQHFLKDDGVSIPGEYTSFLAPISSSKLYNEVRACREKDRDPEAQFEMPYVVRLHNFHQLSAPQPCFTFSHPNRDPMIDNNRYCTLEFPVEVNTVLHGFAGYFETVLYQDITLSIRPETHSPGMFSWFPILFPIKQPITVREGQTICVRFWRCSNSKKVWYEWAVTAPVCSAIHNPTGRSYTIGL
T1 sequence (Q9BQA1 whole entry partner, species assumed): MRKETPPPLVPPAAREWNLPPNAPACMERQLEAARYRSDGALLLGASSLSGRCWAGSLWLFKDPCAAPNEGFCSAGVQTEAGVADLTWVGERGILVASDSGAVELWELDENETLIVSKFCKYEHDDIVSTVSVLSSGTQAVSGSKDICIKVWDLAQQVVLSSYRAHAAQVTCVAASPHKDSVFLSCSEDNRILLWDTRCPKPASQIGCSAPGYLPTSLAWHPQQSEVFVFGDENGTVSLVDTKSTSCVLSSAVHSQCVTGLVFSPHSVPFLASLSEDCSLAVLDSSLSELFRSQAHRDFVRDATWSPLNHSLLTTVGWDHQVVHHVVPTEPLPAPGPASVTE

By IC50 is commonly meant the concentration at which inhibition is half-maximal. A high value points to lower potency. As to `O=C(Nc1cc(-c2ccccc2)[nH]n1)c1csc(Nc2ccc(Cl)cc2)n1` [Example 1, 2-[(4-Chlorophenyl)amino]-N-(5-phenyl-1H-pyrazol-3-yl)-1,3-thiazole-4-carboxamide], the half-maximal inhibitory concentration (IC50) in experiment [1] was not below 30000 nM; in experiment [2], 54.8 nM.
For `CC(C)(C)c1cc(NC(=O)c2csc(Nc3ccccn3)n2)no1` [Example 2, N-(5-tert-Butyl-1,2-oxazol-3-yl)-2-(pyridin-2-ylamino)-1,3-thiazole-4-carboxamide] the same measures were 2450 nM and 78 nM.
Take `CC(C)(C)c1cc(NC(=O)c2csc(Nc3ccccc3)n2)no1` [Example 3, N-(5-tert-Butyl-1,2-oxazol-3-yl)-2-(phenylamino)-1,3-thiazole-4-carboxamide]: the IC50 came to 25400 nM in experiment [1] and 177 nM in experiment [2].
The corresponding values for `CC(C)(C)c1cc(NC(=O)c2csc(Nc3ccc(Cl)cc3)n2)no1` [Example 4, N-(5-tert-Butyl-1,2-oxazol-3-yl)-2-[(4-chlorophenyl)amino]-1,3-thiazole-4-carboxamide] are 20800 nM and 104 nM.
For `O=C(Nc1cc(C2CC2)n[nH]1)c1csc(Nc2ccc(Cl)cc2)n1` [Example 5, 2-[(4-Chlorophenyl)amino]-N-(3-cyclopropyl-1H-pyrazol-5-yl)-1,3-thiazole-4-carboxamide] the same measures were not below 30000 nM and 113 nM.
For `CC(C)(C)c1cc(NC(=O)c2csc(Nc3ccc(F)cc3)n2)no1` [Example 7, N-(5-tert-Butyl-1,2-oxazol-3-yl)-2-[(4-fluorophenyl)amino]-1,3-thiazole-4-carboxamide] the same measures were 17600 nM and 149 nM.
For `O=C(Nc1nc2ccccc2s1)c1csc(Nc2ccc(Cl)cc2)n1` [Example 8, N-(1,3-Benzothiazol-2-yl)-2-[(4-chlorophenyl)amino]-1,3-thiazole-4-carboxamide], the IC50 in experiment [1] is not below 30000 nM; in experiment [2], 111 nM.
With `Cn1nc(NC(=O)c2csc(Nc3ccccc3)n2)cc1C(F)(F)F` [Example 10, N-[1-Methyl-5-(trifluoromethyl)-1H-pyrazol-3-yl]-2-(phenylamino)-1,3-thiazole-4-carboxamide], the IC50 in experiment [1] worked out at 27900 nM; in experiment [2] it was 238 nM.
For `CC(C)(C)c1cc(NC(=O)c2csc(Nc3ccc(Cl)cc3)n2)n[nH]1` [Example 12, N-(5-tert-Butyl-1H-pyrazol-3-yl)-2-[(4-chlorophenyl)amino]-1,3-thiazole-4-carboxamide] the same measures were 22100 nM and 295 nM.
As to `CC(C)(C)c1cc(NC(=O)c2csc(Nc3ccc([N+](=O)[O-])cc3)n2)no1` [Example 13, N-(5-tert-Butyl-1,2-oxazol-3-yl)-2-[(4-nitrophenyl)amino]-1,3-thiazole-4-carboxamide], the figures for the half-inhibitory concentration (IC50) in experiment [1] and in experiment [2] were 26100 nM and 344 nM, respectively.
The corresponding values for `O=C(Nc1cc(C2CC2)n[nH]1)c1csc(Nc2ccccc2)n1` [Example 14, N-(3-Cyclopropyl-1H-pyrazol-5-yl)-2-(phenylamino)-1,3-thiazole-4-carboxamide] are 18600 nM and 303 nM.
As to `CCn1ccc(NC(=O)c2csc(Nc3ccc(Cl)cc3)n2)n1` [Example 15, 2-[(4-Chlorophenyl)amino]-N-(1-ethyl-1H-pyrazol-3-yl)-1,3-thiazole-4-carboxamide], the values for the IC50 in experiment [1] and in experiment [2] were not below 30000 nM and 400 nM, respectively.
The corresponding values for `O=C(NCCCCN1CCc2ccccc2C1)c1csc(Nc2ccc(Cl)cc2)n1` [Example 17, 2-[(4-Chlorophenyl)amino]-N-[4-(3,4-dihydroisoquinolin-2(1H)-yl)butyl]-1,3-thiazole-4-carboxamide] are 10000 nM and 585 nM.
For `Cc1ccc(Nc2nc(C(=O)Nc3cc(C(C)(C)C)on3)cs2)cc1Cl` [Example 18, N-(5-tert-Butyl-1,2-oxazol-3-yl)-2-[(3-chloro-4-methylphenyl)amino]-1,3-thiazole-4-carboxamide] the same measures were not below 30000 nM and 819 nM.
As for `O=C(Nc1ccon1)c1csc(Nc2ccc(Cl)cc2)n1` [Example 19, 2-[(4-Chlorophenyl)amino]-N-(1,2-oxazol-3-yl)-1,3-thiazole-4-carboxamide], the 50% inhibitory concentration (IC50) in experiment [1] was not below 30000 nM; in experiment [2], 775 nM.
In turn, `Cc1cc(F)ccc1Nc1nc(C(=O)Nc2cc(C(C)(C)C)on2)cs1` [Example 50, N-(5-tert-Butyl-1,2-oxazol-3-yl)-2-[(4-fluoro-2-methylphenyl)amino]-1,3-thiazole-4-carboxamide] displayed an IC50 in experiment [2] of 6710 nM.
The same measure, in the same setting: for `C#Cc1cccc(Nc2nc(C(=O)Nc3cc(C(C)(C)C)on3)cs2)c1` [Example 51, N-(5-tert-Butyl-1,2-oxazol-3-yl)-2-[(3-ethynylphenyl)amino]-1,3-thiazole-4-carboxamide] the value was 10500 nM; for `CC(C)(C)c1cc(NC(=O)c2csc(Nc3cccc(F)c3F)n2)no1` [Example 52, N-(5-tert-Butyl-1,2-oxazol-3-yl)-2-[(2,3-difluorophenyl)amino]-1,3-thiazole-4-carboxamide], 12300 nM.
As to `CC(C)(C)c1cc(NC(=O)c2csc(Nc3ccc(F)nc3)n2)no1` [Example 53, N-(5-tert-Butyl-1,2-oxazol-3-yl)-2-[(6-fluoropyridin-3-yl)amino]-1,3-thiazole-4-carboxamide], 15200 nM corresponded to half-maximal inhibition in experiment [2] (IC50).
